Assay results published in patent publication US20060270685A1, “Anhydrous ziprasidone mesylate and a process for its preparation” (priority 2005, published 2006).
Counter-ions that a name gives are not always drawn.

Columns and labels:
[1] = when exposed to air (humidity); cited from earlier work
[2] = Water uptake (hygroscopicity) after exposure to 80% relative humidity, Karl Fisher and XRD; format: physicochemical
Procedure: The present invention further provides non hygroscopic anhydrous ziprasidone mesylate. Anhydrous ziprasidone mesylate is tested for water uptake after exposure to 80% relative humidity, at room temperature for 7 days, as summarized in the following table:
X-Ray powder diffraction data were obtained using a SCINTAG powder X-Ray diffractometer model X'TRA equipped with a solid state detector. Copper radiation of 1.5418 Å was used. A round aluminum sample holder with zero background was used. All peak positions are within ±0.2 degrees two theta. Karl Fisher analysis was performed according to the known art.
Anhydrous ziprasidone mesylate, having a tabular, and equant morphology was exposed to 80% humidity for at least 7 days at room temperature. Before the exposure, the water content was 0.5% as measured by Karl Fisher. After 7 days at 80% humidity at RT the sample contained 0.6% water as measured by Karl Fisher. Thus, there was an increase of 0.1% in the water content.

[3] = 80% RH, room temperature, 7 days

O=C1Cc2cc(CCN3CCN(c4nsc5ccccc45)CC3)c(Cl)cc2N1 [Anhydrous ziprasidone mesylate, ziprasidone mesylate]
hygroscopicity [1]: hygroscopic | Crystal form (by XRD) [2, 3]: Anhydrous | water Content (By KF) [2, 3]: 0.6 | change in the crystal form after the exposure ([2]; 80% humidity, at least 7 days, room temperature): No change in the crystal form | increase in the water content ([2]; 7 days at 80% humidity at RT vs before exposure): 0.1% | Crystal form (by XRD) ([2]; Initial, before exposure): Anhydrous | water Content (By KF) ([2]; Initial, before exposure): 0.5 | water content as measured by Karl Fisher ([2]; after 7 days at 80% humidity at RT): 0.6% | water content as measured by Karl Fisher ([2]; before the exposure): 0.5%
